Laboratory results as given in patent publication US20140039056A1, “BROMFENAC ORGANIC SALTS AND PREPARATION METHOD, COMPOSITION AND USE THEREOF” (SHENYANG XINGQI PHARMACEUTICAL CO., LTD., priority 2010, published 2014).
Where a name gives a salt, the structure may show the parent alone. Read-outs that look alike come from different tables or passages of the source.

Assays:
[1] = In vitro transdermal absorption test (diffusion cell, ex vivo rat skin); conditions: for Accumulative osmolality: ex vivo rat skin, 32° C., n = 3; for Total osmolality of 24 h: 24 h accumulative osmolality x effective area 1.23 cm^2; for transdermal absorption amount relative to bromfenac sodium: in vitro; for Osmotic rate: slope of accumulative osmolality Q against time; for Osmotic percentage: total osmolality of 24 h / mass added to supplying chamber
Description: Preparation of solutions of bromfenac salts: bromfenac sodium, bromfenac diethylamine salt of Example 1, and bromfenac trometamol salt of Example 2 were precisely weighed separately to obtain 0.25 g samples, which were separately placed in 25 ml volumetric flasks, and phosphate buffered solution (pH value was 7.0) was used to reach the metered volume to obtain stock solutions for standby use.
Chromatography conditions: detector: ultraviolet absorption detector (wavelength: 266 nm). Chromatography column: octadecyl silica column (4.0 mm×150 mm, 5 μm). Mobile phase: precisely weighed ammonium acetate 3.85 g, added with water to the metered volume of 1000 mL. 600 mL of this solution was taken, and added with 250 mL of methanol and 150 mL of tetrahydrofuran. Flow rate: 1.5 mL/min.
Plotting standard curves: bromfenac sodium, bromfenac diethylamine salt and bromfenac trometamol salt in suitable amounts were precisely weighed separately, dissolved in mobile phase, diluted separately to form test solutions with concentrations of 10, 30, 60, 120, 300, 700 μg/ml, which were separately weighed precisely to take 20 μl and injected into chromatography and separately assayed.
Transdermal absorption test: ex vivo skins of back and abdomen of 200-260 g rats were taken and used as osmotic membranes, which were fixed with suture on diffusion cells (diffusion cells having a diameter of 1.25 cm, and an effective area of 1.23 cm^2). Stock solutions of bromfenac sodium, bromfenac diethylamine salt and bromfenac trometamol salt in an amount of 2 ml were separately added to supplying chamber, 100 ml of physiological saline was used as receiving solution in receiving cells, kept at a constant temperature of 32° C., stirred (250 r/min). 5 ml samples of receiving solutions were taken precisely with time intervals of 0, 2, 4, 6, 8, 10, 12, 24 hours, filtered, measured according to the above method to determine first-order light spectrum derivative absorption values and calculate contents, and accumulative osmolality Q was calculated according to the following formula;
In the above formula, c is concentration of receiving solution sample; v1 is volume of sample as taken at every turn; v2 is volume of diffusion cell; A is diffusion area. Diagrams were plotted by using t as abscissa, Q as ordinate to obtain osmosis curves of bromfenac sodium, bromfenac diethylamine salt and bromfenac trometamol salt; linear regression was performed using accumulative osmolality Q against time, the obtained slope K was transdermal osmotic rate; the accumulative osmolality of 24 hours was multiplied by the effective osmotic area (1.23 cm^2) to obtain total osmolality of 24 hours; and the total osmolality of 24 hours was divided by the mass of the added product in the supplying chamber to obtain osmotic percentage.

[2] = cited from earlier work
[3] = analgesic effect; cited from earlier work

Which Accumulative osmolality ([1]; 2 hours) does the source give for `Nc1c(CC(=O)O)cccc1C(=O)c1ccc(Br)cc1` [Bromfenac trometamol salt, bromfenac trometamol salt] here?
The Accumulative osmolality was 277.2 μg/cm^2.

And the Accumulative osmolality ([1]; 4 hours)?
The Accumulative osmolality was 632.5 μg/cm^2.

What about the Accumulative osmolality ([1]; 6 hours) of the same molecule?
The Accumulative osmolality was 1268.3 μg/cm^2.

And the Accumulative osmolality ([1]; 8 hours)?
Its Accumulative osmolality is 2089.6 μg/cm^2.

What about the Accumulative osmolality ([1]; 10 hours) of the same molecule?
The Accumulative osmolality was 2736.1 μg/cm^2.

What about the Accumulative osmolality ([1]; 12 hours) of the same molecule?
The Accumulative osmolality was 3085.7 μg/cm^2.

And the “Total osmolality of 24 h” value [1]?
The value was 9010.0 µg.

What about the Accumulative osmolality ([1]; 24 hours) of the same molecule?
The Accumulative osmolality was 7326.9 μg/cm^2.

What about the “transdermal absorption amount relative to bromfenac sodium” value ([1]; 24 hours) of the same molecule?
The value was 1.61 times.

What about the Osmotic rate [1] of the same molecule?
Its Osmotic rate is 320.61 μg/cm^2 · h^−1.

And the Osmotic percentage [1]?
The Osmotic percentage was 45.05%.

Which results are given for `Nc1c(CC(=O)[O-])cccc1C(=O)c1ccc(Br)cc1.[Na+]` [Bromfenac sodium, 2-amino-3-(4-bromobenzoyl)phenylacetic acid sodium salt sesquialter hydrate, reference compound]?
solubility ([2]; 0.1M hydrochloric acid solution): almost insoluble; solubility ([2]; acetone): almost insoluble; solubility ([2]; acetonitrile): almost insoluble; solubility ([2]; ethanol): slight soluble; solubility ([2]; methanol): soluble; solubility ([2]; water): soluble; potency relative to other non-steroid anti-inflammatory agents [3]: 10 times; Accumulative osmolality ([1]; 2 hours): 45.5 μg/cm^2; Accumulative osmolality ([1]; 4 hours): 118.5 μg/cm^2; Accumulative osmolality ([1]; 6 hours): 340.8 μg/cm^2; Accumulative osmolality ([1]; 8 hours): 708.6 μg/cm^2; Accumulative osmolality ([1]; 10 hours): 1231.3 μg/cm^2; Accumulative osmolality ([1]; 12 hours): 2214.5 μg/cm^2; Total osmolality of 24 h [1]: 5600.0 µg; Accumulative osmolality ([1]; 24 hours): 4554.1 μg/cm^2; Osmotic rate [1]: 219.05 μg/cm^2 · h^−1; Osmotic percentage [1]: 28.0%

With `Nc1c(CC(=O)O)cccc1C(=O)c1ccc(Br)cc1` [Bromfenac diethylamine salt, bromfenac diethylamine salt] as the molecule, how does the Accumulative osmolality ([1]; 2 hours) read?
Its Accumulative osmolality is 322.8 μg/cm^2.

And the Accumulative osmolality ([1]; 4 hours)?
Its Accumulative osmolality is 964.1 μg/cm^2.

What about the Accumulative osmolality ([1]; 6 hours) of the same molecule?
The Accumulative osmolality was 1898.6 μg/cm^2.

What about the Accumulative osmolality ([1]; 8 hours) of the same molecule?
The Accumulative osmolality was 2721.8 μg/cm^2.

And the Accumulative osmolality ([1]; 10 hours)?
Its Accumulative osmolality is 3303.0 μg/cm^2.

And the Accumulative osmolality ([1]; 12 hours)?
Its Accumulative osmolality is 4123.6 μg/cm^2.

And the “Total osmolality of 24 h” value [1]?
Its value is 10360.0 µg.

And the Accumulative osmolality ([1]; 24 hours)?
The Accumulative osmolality was 8426.7 μg/cm^2.

And the “transdermal absorption amount relative to bromfenac sodium” value ([1]; 24 hours)?
The value was 1.85 times.

What about the Osmotic rate [1] of the same molecule?
Its Osmotic rate is 369.04 μg/cm^2 · h^−1.

What about the Osmotic percentage [1] of the same molecule?
The Osmotic percentage was 51.80%.
